Measurements reported in publication PMC6689975, “Novel Cell Wall Antifungals Reveal a Special Synergistic Activity in pbr1 Mutants Resistant to the Glucan Synthesis Antifungals Papulacandins and Echinocandins” (Frontiers in Microbiology, 2019).
Values after ≈ are worked out from the molar mass of the structure shown. Like-named read-outs stand apart in the source and are kept apart here.

Tests used:
Assay in all cases: microbe, parasite or virus in culture
[1] = test system: T1, S. pombe wild-type 972 h-; set-up: species or system whole yeast cells; macro tube broth dilution MIC in YEPD at 30 C, visual clearness of medium; conditions: Schizosaccharomyces pombe, 48 h
T1 construct: 972 h-
Method: (§1) Standard YEPD (Yeast Extract, Peptone, Dextrose) ([Sherman, 1990]), YEPD+S (YEPD with 1.2M sorbitol), YES (Yeast Extract, Dextrose and Supplements of Adenine, Histidine, Leucine, Uracil and Lysine) ([Alfa et al., 1993]) and YES+S (YES with 1.2 M sorbitol) ([Ribas et al., 1991]; [Ishiguro et al., 1997]), media were used for determination of MIC values of the tested compounds. A stock solution of 10 mg/ml of each tested compounds was prepared in DMSO and serial dilutions in DMSO were prepared. The final concentration of DMSO was 2% in the YEPD medium. […] The serial dilutions of compounds were dispensed into test tubes with 1 ml of YEPD or YEPD+S to make final concentrations of 200, 100, 50, 25, 12.5, 6.26, 3.125, 1.6, 0.8 and 0.4 μg/ml. The tested yeast strains were previously grown in YEPD, YEPD+S, YES or YES+S agar plates at 30°C for 48 h. For inoculation of YEPD or YEPD+S macro test tubes a suspension of tested fungus was produced with 10^5 cfu/ml (cfu - colony forming unit). 10 μl of suspension was used for inoculation of each tube. After 48 h incubation at 30°C the tubes were checked. The MIC value is the lowest concentration of the tested compound that could inhibit the fungal growth and the medium remained clear. From each tube 10 μl culture was plated on YEPD agar medium to check the contamination. The MIC tests were carried out in three parallels. The screening of the first generation of isochromanones was carried out in YEPD and YEPD+S media (1E-16E). The fungal strains analyzed are: C. albicans wild-type ATCC 26555, SC5314 and ATCC 90028, S. cerevisiae wild-type CVX12-3A and pbr1-1 mutant, and S. pombe wild-type (972h^–), pbr1-8 mutant and pbr1-6 mutant. The bold numbers in Tables 4–6 indicate the more efficient compounds. […] The weak or moderate efficacy against the C. albicans wild-type strains was observed by some substances (3E, 4Z, 5Z, 10E, 15, and 16E). The efficiency toward the S. pombe pbr1-6 mutant strain was the highest inhibitory activity, except 7E, 11E, 12 and 14E. […] As regards the other S. pombe pbr1-8 mutant strain, the antifungal activity of the tested compounds was slightly lower, but the substances with the best activity are partly identical to the best compounds mentioned with pbr1-6, (i.e., 1E, 3E, 4Z, 5Z).

[2] = test system: T2, S. cerevisiae wild-type CVX12-3A; set-up: species or system whole yeast cells; macro tube broth dilution MIC in YEPD at 30 C, visual clearness of medium; conditions: Saccharomyces cerevisiae, 48 h
T2 construct: CVX12-3A
Method: as §1

[3] = test system: T1, S. pombe wild-type 972 h-; set-up: species or system whole yeast cells; micro-culture broth dilution MIC in YES at 30 C, turbidity, complete growth inhibition; conditions: Schizosaccharomyces pombe
Method: (§2) Standard YEPD (Yeast Extract, Peptone, Dextrose) ([Sherman, 1990]), YEPD+S (YEPD with 1.2M sorbitol), YES (Yeast Extract, Dextrose and Supplements of Adenine, Histidine, Leucine, Uracil and Lysine) ([Alfa et al., 1993]) and YES+S (YES with 1.2 M sorbitol) ([Ribas et al., 1991]; [Ishiguro et al., 1997]), media were used for determination of MIC values of the tested compounds. A stock solution of 10 mg/ml of each tested compounds was prepared in DMSO and serial dilutions in DMSO were prepared. The final concentration of DMSO was 2% in the YEPD medium. […] The serial dilutions of compounds were dispensed into test tubes with 1 ml of YEPD or YEPD+S to make final concentrations of 200, 100, 50, 25, 12.5, 6.26, 3.125, 1.6, 0.8 and 0.4 μg/ml. The tested yeast strains were previously grown in YEPD, YEPD+S, YES or YES+S agar plates at 30°C for 48 h. Micro-culture assays of large numbers of samples were analyzed as described) ([Martins et al., 2011]). Essentially early log-phase cells were grown in YEPD, YEPD+S, YES or YES+S (1.2 M sorbitol) medium at 30°C, and diluted to cell density of 4 X 10^6 cells/ml in YEPD, YEPD+S, YES or YES+S medium and aliquots of 100 μl were dispensed into each small test tube (3 ml test tube size). Then, another 100 μl of YEPD, YEPD+S, YES or YES+S with the corresponding dilution of each compound at 2X concentration (4% DMSO) was added. The final volume was 200 μl, with the cells diluted to of 2 X 10^6 cells/ml and each compound diluted to 1X final concentration, containing increasing concentrations of antifungal (0, 1, 2, 5, 10, 20, 50, 100 and 200 μg/ml) or an equivalent volume of solvent (2% DMSO). The cells were grown at 30°C in an orbital roller and turbidity was analyzed after 24 and 48 h of incubation. The MIC was determined as the minimal concentration of tested compound that produced complete cell growth inhibition and kept the medium clear. The MIC values were calculated from at least three independent experiments. Next, the first generation of isochromanones (1E-16E) was also screened in YES medium (Table 5) and exerted a weaker antifungal potency than in YEPD medium and also than the second family of isochromanones in YES medium (17E-30E) (Table 6). The strains are partly different from the previously mentioned ones (Tables 5, 6) analyzing two wild type C. albicans strains because they behaved similarly in YEPD. It is remarkable that there was no effect against either the C. albicans, the S. cerevisiae, or the S. pombe wild-type strains, except with 30E.

[4] = test system: T2, S. cerevisiae wild-type CVX12-3A; set-up: species or system whole yeast cells; micro-culture broth dilution MIC in YES at 30 C, turbidity, complete growth inhibition; conditions: Saccharomyces cerevisiae
Method: as §2

Work on `CC[C@H](C)C[C@H](C)CCCCCCCCC(=O)N[C@H]1C[C@@H](O)[C@@H](NCCN)NC(=O)[C@@H]2[C@@H](O)CCN2C(=O)[C@H]([C@H](O)CCN)NC(=O)[C@H]([C@H](O)[C@@H](O)c2ccc(O)cc2)NC(=O)[C@@H]2C[C@@H](O)CN2C(=O)[C@H]([C@@H](C)O)NC1=O` [caspofungin] yielded an MIC ([1]; read-out: MIC) of 5 µg/mL (≈ 4.57 µM), an MIC ([2]; read-out: MIC) of 1 µg/mL (≈ 0.915 µM) and an MIC ([3]; read-out: MIC) of 10 µg/mL (≈ 9.15 µM). The MIC ([4]; read-out: MIC) was 0.5 µg/mL (≈ 0.457 µM).

In the case of `O=c1oc2ccc3ccccc3c2cc1-c1ccccc1CO` [compound 12], the MIC ([1]; YEPD medium) is reported as 200 µg/mL (≈ 662 µM), the MIC ([2]; YEPD medium) is reported as 100 µg/mL (≈ 331 µM) and the MIC ([3]; YES medium) is reported as > 200 µg/mL. For the same compound, the MIC ([4]; YES medium) was > 200 µg/mL.

For `O=c1oc2ccccc2cc1-c1ccccc1CO` [compound 15], the MIC ([1]; YEPD medium) was 100 µg/mL (≈ 396 µM), the MIC ([2]; YEPD medium) was 50 µg/mL (≈ 198 µM) and the MIC ([3]; YES medium) was > 200 µg/mL. The MIC ([4]; YES medium) was > 200 µg/mL.
